In general, IC50 refers to the concentration at which inhibition is half-maximal.

Our source for the inhibition and IC50 values is ChEMBL document CHEMBL3425433, “Discovery of bicyclic pyrazoles as class III histone deacetylase SIRT1 and SIRT2 inhibitors” (Bioorg Med Chem Lett, 2015).

For experiment [1], the target named is Histone deacetylase 2 (Homo sapiens, UniProt Q92769). Description: Inhibition of HDAC2 (unknown origin).
Experiment [2] concerns the target T1, Protein deacetylase HDAC6 (Homo sapiens) (UniProt Q9UBN7).
T1 sequence (whole entry): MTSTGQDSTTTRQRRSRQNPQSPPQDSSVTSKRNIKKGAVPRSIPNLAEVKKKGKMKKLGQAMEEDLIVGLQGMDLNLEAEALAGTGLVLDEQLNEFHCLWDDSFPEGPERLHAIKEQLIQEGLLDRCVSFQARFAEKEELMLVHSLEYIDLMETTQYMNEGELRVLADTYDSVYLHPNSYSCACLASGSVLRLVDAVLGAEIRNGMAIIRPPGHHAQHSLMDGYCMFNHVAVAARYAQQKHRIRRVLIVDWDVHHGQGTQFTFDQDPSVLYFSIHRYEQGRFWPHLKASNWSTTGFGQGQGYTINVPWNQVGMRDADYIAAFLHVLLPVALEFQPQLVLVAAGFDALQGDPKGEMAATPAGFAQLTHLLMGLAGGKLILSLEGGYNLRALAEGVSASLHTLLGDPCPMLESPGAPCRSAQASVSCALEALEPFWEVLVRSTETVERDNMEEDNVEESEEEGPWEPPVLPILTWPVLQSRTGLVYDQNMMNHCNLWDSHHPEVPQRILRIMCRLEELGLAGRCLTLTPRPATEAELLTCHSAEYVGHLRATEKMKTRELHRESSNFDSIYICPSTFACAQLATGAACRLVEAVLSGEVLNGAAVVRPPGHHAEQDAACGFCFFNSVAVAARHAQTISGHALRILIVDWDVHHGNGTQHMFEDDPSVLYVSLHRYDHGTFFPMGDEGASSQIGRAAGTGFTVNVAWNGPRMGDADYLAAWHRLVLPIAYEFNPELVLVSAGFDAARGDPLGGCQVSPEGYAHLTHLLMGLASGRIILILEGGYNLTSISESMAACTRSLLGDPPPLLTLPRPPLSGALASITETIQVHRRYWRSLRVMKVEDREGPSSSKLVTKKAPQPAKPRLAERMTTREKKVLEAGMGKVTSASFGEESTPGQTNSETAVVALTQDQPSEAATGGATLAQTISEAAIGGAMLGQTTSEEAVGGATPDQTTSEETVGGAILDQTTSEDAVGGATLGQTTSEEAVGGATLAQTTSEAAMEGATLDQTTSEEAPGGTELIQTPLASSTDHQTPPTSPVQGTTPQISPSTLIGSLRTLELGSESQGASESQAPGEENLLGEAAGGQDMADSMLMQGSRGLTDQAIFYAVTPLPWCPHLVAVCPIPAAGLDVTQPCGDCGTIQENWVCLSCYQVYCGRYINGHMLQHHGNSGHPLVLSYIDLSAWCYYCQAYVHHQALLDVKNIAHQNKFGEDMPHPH
Kind of experiment: Inhibition of HDAC6 (unknown origin).

Experiment [3] deals with Histone deacetylase 5 (Homo sapiens) (UniProt Q9UQL6). Kind of experiment: Inhibition of HDAC5 (unknown origin).
Experiment [4] addresses Histone deacetylase 4 (Homo sapiens) (UniProt P56524). Description: Inhibition of HDAC4 (unknown origin).
Experiment [5] has as its target T2, Histone deacetylase 7 (Homo sapiens) (UniProt Q8WUI4).
T2 sequence (whole entry): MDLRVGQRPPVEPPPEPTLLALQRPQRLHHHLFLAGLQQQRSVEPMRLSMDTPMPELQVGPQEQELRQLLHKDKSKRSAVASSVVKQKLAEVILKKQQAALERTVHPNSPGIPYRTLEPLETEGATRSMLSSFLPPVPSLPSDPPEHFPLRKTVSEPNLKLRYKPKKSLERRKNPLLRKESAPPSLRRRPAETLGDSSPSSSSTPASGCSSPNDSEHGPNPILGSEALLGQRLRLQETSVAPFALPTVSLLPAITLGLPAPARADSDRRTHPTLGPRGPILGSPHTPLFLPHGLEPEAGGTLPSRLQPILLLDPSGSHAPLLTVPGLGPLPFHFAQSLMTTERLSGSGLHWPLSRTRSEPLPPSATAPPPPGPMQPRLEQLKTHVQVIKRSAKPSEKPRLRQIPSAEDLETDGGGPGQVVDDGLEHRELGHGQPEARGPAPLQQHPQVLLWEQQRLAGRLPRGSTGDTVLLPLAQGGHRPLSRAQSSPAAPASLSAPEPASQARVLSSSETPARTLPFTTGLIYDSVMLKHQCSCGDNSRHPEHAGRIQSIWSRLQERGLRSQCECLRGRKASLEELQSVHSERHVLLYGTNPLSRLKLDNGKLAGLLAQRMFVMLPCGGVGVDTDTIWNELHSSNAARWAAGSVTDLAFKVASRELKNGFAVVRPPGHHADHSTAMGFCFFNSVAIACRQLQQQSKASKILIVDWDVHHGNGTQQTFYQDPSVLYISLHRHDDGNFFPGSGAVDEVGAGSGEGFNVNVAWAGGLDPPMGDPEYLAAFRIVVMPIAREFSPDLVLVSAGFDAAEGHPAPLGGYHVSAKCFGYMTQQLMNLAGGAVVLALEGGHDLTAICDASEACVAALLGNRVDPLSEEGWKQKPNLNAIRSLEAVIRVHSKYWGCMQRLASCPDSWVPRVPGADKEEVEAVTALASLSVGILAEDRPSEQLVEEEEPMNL
Description: Inhibition of HDAC7 (unknown origin).

The target of experiment [6] is T3, Histone deacetylase 8 (Homo sapiens) (UniProt Q9BY41).
T3 sequence (whole entry): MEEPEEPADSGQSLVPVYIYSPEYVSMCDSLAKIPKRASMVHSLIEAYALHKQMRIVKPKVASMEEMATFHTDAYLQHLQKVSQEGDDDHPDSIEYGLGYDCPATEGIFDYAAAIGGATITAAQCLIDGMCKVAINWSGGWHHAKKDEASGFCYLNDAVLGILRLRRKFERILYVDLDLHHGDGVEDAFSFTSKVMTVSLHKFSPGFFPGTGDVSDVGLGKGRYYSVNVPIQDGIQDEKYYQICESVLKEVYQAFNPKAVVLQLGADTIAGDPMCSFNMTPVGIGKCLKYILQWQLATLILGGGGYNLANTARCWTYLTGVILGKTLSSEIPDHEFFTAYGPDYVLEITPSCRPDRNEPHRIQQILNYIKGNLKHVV
Description: Inhibition of HDAC8 (unknown origin).

Active and inactive are the calls of the source. The calls are words filed in the database; no cut-off is given here.

Histone deacetylase 4 (Homo sapiens), sequence (P56524 whole entry): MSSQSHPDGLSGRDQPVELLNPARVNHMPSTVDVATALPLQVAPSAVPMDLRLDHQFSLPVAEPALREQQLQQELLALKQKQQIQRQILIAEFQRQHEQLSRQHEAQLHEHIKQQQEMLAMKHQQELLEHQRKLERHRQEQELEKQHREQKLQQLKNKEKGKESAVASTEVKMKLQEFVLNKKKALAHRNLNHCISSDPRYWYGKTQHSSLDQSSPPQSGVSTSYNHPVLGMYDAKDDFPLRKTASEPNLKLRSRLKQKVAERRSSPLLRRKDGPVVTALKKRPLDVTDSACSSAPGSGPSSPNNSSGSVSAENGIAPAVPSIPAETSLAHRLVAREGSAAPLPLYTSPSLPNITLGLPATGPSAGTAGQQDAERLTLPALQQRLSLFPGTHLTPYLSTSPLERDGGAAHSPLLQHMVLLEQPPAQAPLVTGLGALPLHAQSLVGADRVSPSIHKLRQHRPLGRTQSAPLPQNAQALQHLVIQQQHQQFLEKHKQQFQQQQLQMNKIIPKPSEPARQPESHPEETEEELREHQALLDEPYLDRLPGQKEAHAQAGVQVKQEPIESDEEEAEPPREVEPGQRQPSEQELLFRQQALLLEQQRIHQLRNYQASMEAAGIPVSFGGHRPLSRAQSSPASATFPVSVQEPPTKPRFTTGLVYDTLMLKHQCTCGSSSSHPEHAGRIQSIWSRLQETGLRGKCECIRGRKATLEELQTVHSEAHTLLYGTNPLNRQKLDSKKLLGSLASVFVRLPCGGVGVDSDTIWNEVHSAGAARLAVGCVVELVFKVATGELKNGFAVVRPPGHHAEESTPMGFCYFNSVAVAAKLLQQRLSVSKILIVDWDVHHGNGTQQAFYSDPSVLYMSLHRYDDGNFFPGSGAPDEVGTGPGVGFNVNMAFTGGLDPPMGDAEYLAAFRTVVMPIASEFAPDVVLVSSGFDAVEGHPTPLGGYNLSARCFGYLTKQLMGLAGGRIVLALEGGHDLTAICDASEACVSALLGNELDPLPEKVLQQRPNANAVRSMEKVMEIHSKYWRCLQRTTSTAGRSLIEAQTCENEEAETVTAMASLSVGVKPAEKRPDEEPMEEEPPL
Histone deacetylase 2, sequence (Q92769 whole entry): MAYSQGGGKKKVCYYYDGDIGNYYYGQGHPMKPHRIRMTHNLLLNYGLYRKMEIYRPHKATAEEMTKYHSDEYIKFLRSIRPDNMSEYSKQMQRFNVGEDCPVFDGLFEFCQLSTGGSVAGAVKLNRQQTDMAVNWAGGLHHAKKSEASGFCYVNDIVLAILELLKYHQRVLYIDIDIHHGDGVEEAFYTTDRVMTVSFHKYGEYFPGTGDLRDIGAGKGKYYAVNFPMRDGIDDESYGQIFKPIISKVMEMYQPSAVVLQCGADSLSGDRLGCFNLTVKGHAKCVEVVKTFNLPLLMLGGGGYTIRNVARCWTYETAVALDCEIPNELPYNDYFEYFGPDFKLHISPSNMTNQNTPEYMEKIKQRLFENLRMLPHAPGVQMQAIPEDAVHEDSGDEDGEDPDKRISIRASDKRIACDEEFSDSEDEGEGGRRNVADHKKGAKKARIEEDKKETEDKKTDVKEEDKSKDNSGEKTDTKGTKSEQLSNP
Histone deacetylase 5 (Homo sapiens), sequence (Q9UQL6 whole entry): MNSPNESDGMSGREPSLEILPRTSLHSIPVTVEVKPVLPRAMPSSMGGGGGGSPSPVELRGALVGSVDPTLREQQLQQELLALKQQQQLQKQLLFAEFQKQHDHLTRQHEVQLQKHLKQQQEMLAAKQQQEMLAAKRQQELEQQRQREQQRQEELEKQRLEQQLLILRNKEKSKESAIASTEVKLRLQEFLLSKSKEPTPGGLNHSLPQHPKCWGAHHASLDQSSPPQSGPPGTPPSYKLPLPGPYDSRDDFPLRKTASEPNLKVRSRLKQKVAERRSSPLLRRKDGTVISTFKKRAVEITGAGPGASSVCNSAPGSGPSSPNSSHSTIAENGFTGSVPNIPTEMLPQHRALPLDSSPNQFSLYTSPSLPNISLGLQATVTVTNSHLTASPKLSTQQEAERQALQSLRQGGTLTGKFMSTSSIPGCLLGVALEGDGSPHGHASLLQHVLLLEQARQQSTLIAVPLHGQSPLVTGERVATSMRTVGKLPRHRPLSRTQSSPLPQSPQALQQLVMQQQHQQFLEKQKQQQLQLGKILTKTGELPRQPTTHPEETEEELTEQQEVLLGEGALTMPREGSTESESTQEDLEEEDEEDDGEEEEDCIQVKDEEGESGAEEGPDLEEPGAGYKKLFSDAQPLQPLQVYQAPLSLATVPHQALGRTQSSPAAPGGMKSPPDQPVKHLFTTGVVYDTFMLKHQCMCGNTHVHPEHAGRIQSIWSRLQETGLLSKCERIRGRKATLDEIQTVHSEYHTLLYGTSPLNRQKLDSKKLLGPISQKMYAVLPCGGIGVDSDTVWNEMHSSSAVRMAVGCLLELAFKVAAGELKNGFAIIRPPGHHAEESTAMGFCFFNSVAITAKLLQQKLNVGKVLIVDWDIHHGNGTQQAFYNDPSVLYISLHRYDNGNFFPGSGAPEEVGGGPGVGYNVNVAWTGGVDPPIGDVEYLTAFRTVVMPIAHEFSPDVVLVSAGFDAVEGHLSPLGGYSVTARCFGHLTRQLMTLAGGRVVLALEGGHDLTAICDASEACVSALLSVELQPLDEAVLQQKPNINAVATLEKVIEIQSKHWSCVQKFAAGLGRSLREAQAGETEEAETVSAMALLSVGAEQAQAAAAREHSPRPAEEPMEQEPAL

Take `NC(=O)C1CC(c2ccccc2)Cc2c(-c3ccc(Cl)cc3)n[nH]c21` (mixture of isomers): the inhibition entry in experiment [1], in experiment [2], in experiment [3], in experiment [4], in experiment [5] and in experiment [6] was “inactive” each time.

On to `NC(=O)C1CCCc2c(-c3ccc(Cl)cc3)n[nH]c21` (racemic), for which the inhibition result in experiment [1], in experiment [2], in experiment [3], in experiment [4], in experiment [5] and in experiment [6] was “inactive” each time.

As for `NC(=O)C1CCCc2c(-c3ccc(Cl)c(Cl)c3)n[nH]c21` (racemic), the IC50 in experiment [1] is > 10 µM.

For the compound `NC(=O)C1CCCc2c(-c3ccc(Cl)c(F)c3)n[nH]c21` (racemic), the inhibition result in experiment [1], in experiment [2], in experiment [3], in experiment [4], in experiment [5] and in experiment [6] was “inactive” throughout.

For `NC(=O)C1CCCc2c(-c3ccc(Br)cc3)n[nH]c21` (racemic), the inhibition entry in experiment [1], in experiment [2], in experiment [3], in experiment [4], in experiment [5] and in experiment [6] was “inactive” each time.

Take `Cc1ccc(-c2n[nH]c3c2CCCC3C(N)=O)cc1` (racemic): the inhibition entry in experiment [1], in experiment [2], in experiment [3], in experiment [4], in experiment [5] and in experiment [6] was “inactive” throughout.

As for `NC(=O)C1CCCc2c(-c3cc(Br)cs3)n[nH]c21` (racemic), the inhibition result in experiment [1], in experiment [2], in experiment [3], in experiment [4], in experiment [5] and in experiment [6] was “inactive” in each case.

For `NC(=O)C1CCCc2c(-c3cc4ccccc4s3)n[nH]c21` (racemic), the inhibition result in experiment [1], in experiment [2], in experiment [3], in experiment [4], in experiment [5] and in experiment [6] was “inactive” each time.

Consider `NC(=O)C1CCCc2c(-c3cc4ccccc4o3)n[nH]c21` (racemic), for which the inhibition result in experiment [1], in experiment [2], in experiment [3], in experiment [4], in experiment [5] and in experiment [6] was “inactive” throughout.

Consider `NC(=O)C1CCCc2c(-c3nc4ccccc4s3)n[nH]c21` (racemic), for which the inhibition result in experiment [1], in experiment [2], in experiment [3], in experiment [4], in experiment [5] and in experiment [6] was “inactive” throughout.

Regarding `Cn1c(-c2n[nH]c3c2CCCC3C(N)=O)cc2ccccc21` (racemic), the inhibition result in experiment [1], in experiment [2], in experiment [3], in experiment [4], in experiment [5] and in experiment [6] was “inactive” throughout.

Consider `NC(=O)C1CCCCc2c(-c3ccc(Cl)cc3)n[nH]c21` (racemic), for which the inhibition result in experiment [1], in experiment [2], in experiment [3], in experiment [4], in experiment [5] and in experiment [6] was “inactive” throughout.

For `CC1(C)Cc2c(-c3ccc(Cl)cc3)n[nH]c2C(C(N)=O)C1` (racemic), the inhibition entry in experiment [1], in experiment [2], in experiment [3], in experiment [4], in experiment [5] and in experiment [6] was “inactive” throughout.

On to `CC1(C)CCC(C(N)=O)c2[nH]nc(-c3ccc(Cl)cc3)c21` (racemic), for which the inhibition entry in experiment [1], in experiment [2], in experiment [3], in experiment [4], in experiment [5] and in experiment [6] was “inactive” in each case.

Consider `CC1(C)Cc2c(-c3cc4ccccc4s3)n[nH]c2C(C(N)=O)C1` (racemic), for which the inhibition result in experiment [1], in experiment [2], in experiment [3], in experiment [4], in experiment [5] and in experiment [6] was “inactive” each time.

For `NC(=O)C1CC2(Cc3c(-c4ccc(Cl)cc4)n[nH]c31)OCCO2` (racemic), the inhibition result in experiment [1], in experiment [2], in experiment [3], in experiment [4], in experiment [5] and in experiment [6] was “inactive” throughout.

Consider `NC(=O)C1Cc2ccccc2Cc2c(-c3ccc(Cl)cc3)n[nH]c21` (racemic), for which the inhibition entry in experiment [1], in experiment [2], in experiment [3], in experiment [4], in experiment [5] and in experiment [6] was “inactive” throughout.
